Reference: patent publication US7772255B2, “Method of treating tumors with azaxanthones” (Supratek Pharma, Inc., priority 2005, dated 2010)

Legend:
[1] = tested on: CSML100 cells; test: S100A4-positive lung metastasis tumor model, alone or in combinations (Example 25); type: in vivo, mouse; details: CSML100 i.v. in A/J mice, mean±SEM
Method: Amlexanox solution for injections was prepared according to the Example 4. […] The animals were then divided randomly into 9 groups (n=9 except for control group): 1) intact control (n=13, saline); 2) Amlexanox (i.v. 100 mg/kg); 3) Amlexanox ([…]. 3 mg/kg); 5) Amlexanox ([…]. […] 10 mg/kg). […] The treatments were started on the day following the tumor cell implantation and continued for 10 consecutive days. […] The animal body weight was recorded as an index of treatment toxicity during the experiment. […] The data are expressed as mean±SEM for the number of metastatic sites on the lung surface.

[2] = tested on: B16F10/DX cells; test: B16 experimental metastasis model (Example 26); type: in vivo, mouse; details: B16F10/DX i.v. in C57BL/6 mice; TPT 2.0 mg/kg i.v. on day 1, 4, and 7; mean±SEM
Method: Amlexanox solution for injections was prepared according to the Example 4. B16F10/DX cell (2.0×10^5 cells per animal) were inoculated intravenously in female C57BL//6 mice (6-7 weeks old) and animals were then divided randomly into 4 groups (n=9 except for control group): 1) intact control (n=12, saline); 2) Amlexanox (100 mg/kg, daily p.o. administration); 3) TPT (2.0 mg/kg i.v. administration on day 1, 4, and 7); 5) Amlexanox (daily p.o. 100 mg/kg)+TPT (i.v. 2.0 mg/kg on day 1, 4, and 7). Intact control received oral administration with 10 ml/kg (volume/body weight) of saline, while Amlexanox was administrated orally and daily with a dose of 100 mg/kg in a volume of 10 ml/kg. The treatments were started from the day following the tumor cell implantation until the end of the protocol. However, TPT was administrated intravenously only on day 1, 4, and 7 after tumor implantation. The animal body weight was recorded as an index of treatment toxicity during the experiment.
The data in Table show metastasis formation in the lung in the mice implanted with B16F10/DX cells. The data are expressed as mean±SEM for the number of metastatic sites on the lung surface.

[3] = Chemical stability of Amlexanox sodium salt solution (HPLC); type: physicochemical; details: 20 mg Amlexanox sodium salt in 2 mL Tris buffer pH 7.2; 0.05 molar equivalent of the listed compound; 72 hours, ambient light, access to air; HPLC peak area
Method: 20 mg of crystalline Amlexanox sodium salt was dissolved in a clear glass test tube in 2 mL of Tris buffer, pH 7.2. For each of the stabilizing compounds listed in the Table below, 0.05 molar equivalent of the compound was added to the solution, mixed until dissolved, and left under ambient light, and with access to the air. Concentration of Amlexanox in the sample was determined by HPLC right after preparation, and after 72 hours. The chemical stability of Amlexanox was evaluated by comparison of area under the peak of amlexanox from the two analyses.

SMILES	Retained Amlexnox [3]	further results
CC[C@@]1(O)C(=O)OCc2c1cc1n(c2=O)Cc2cc3c(CN(C)C)c(O)ccc3nc2-1 [TPT, topotecan]	–	Lung Metastasis Number per Animal ([1]; TPT i.v. 3 mg/kg on day 1, 4, 7): 6.20 ± 1.32; Lung Metastasis Number per Animal [2]: 88.0 ± 8.79
Cc1occc(=O)c1O [Maltol]	99.6%	–
Cn1c(=O)c2c(ncn2C)n(C)c1=O [Caffeine]	96.8%	–
O=C1O[C@H]([C@@H](O)CO)C(O)=C1O [Ascorbic acid]	99.5%	–
COC(=O)c1ccc(O)cc1 [Methyl 4-hydroxybenzoate]	93.1%	–
CCCOC(=O)c1cc(O)c(O)c(O)c1 [Propyl galate]	99.7%	–
COc1cccc2c1C(=O)c1c(O)c3c(c(O)c1C2=O)C[C@@](O)(C(=O)CO)C[C@@H]3O[C@H]1C[C@H](N)[C@H](O)[C@H](C)O1 [Dox, doxorubicin]	–	Lung Metastasis Number per Animal ([1]; Dox i.v. 3 mg/kg on day 1, 4, 7): 15.6 ± 2.66
